31 compounds from patent US7135466B2 (Kirin Beer Kabushiki Kaisha, priority 1999, dated 2006) can be followed below.

pIC50: −log10 of the molar value. Some results are limits rather than exact numbers.

As usually defined, the pIC50 is the IC50 on a negative log10 scale, so that one unit is a factor of ten. In general, inhibition refers to the share of the control response that was lost under treatment.

One assay has as its target T1, PDGF-Ra (Homo sapiens, UniProt P16234).
T1 construct: host or cells: G-292 human osteosarcoma cells
Kind of assay: Inhibitory activity against PDGF-Ra phosphorylation by PDGF-AA stimulation using G292. The following applies: for pIC50: Pharmacological Test Example 1, > means inhibition at indicated concentration not more than 50%, < and << not less than 50%, read-out: PDGF (E) IC50. It is filed as cell-based. In short, it runs like this: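 Phospho-PDGF-Ra ELISA: capture with PY-20 antiphosphotyrosine, detection with anti-PDGF-Ra and peroxidase secondary, read at 450 nm. Lysates came from G-292 osteosarcoma cells starved in 0.1% FBS, compound-treated 1 hr at 37° C, and stimulated with 50 ng/ml PDGF-AA for 5 min.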

The target in a further assay is T2, c-kit (Homo sapiens, UniProt P10721).
T2 construct: MO7e (human megakaryocytic leukemia cell line) which had been arrested for 20 hr; endogenous in cells; host or cells: MO7e human megakaryocytic leukemia cell line
T2 sequence (P10721 26-976): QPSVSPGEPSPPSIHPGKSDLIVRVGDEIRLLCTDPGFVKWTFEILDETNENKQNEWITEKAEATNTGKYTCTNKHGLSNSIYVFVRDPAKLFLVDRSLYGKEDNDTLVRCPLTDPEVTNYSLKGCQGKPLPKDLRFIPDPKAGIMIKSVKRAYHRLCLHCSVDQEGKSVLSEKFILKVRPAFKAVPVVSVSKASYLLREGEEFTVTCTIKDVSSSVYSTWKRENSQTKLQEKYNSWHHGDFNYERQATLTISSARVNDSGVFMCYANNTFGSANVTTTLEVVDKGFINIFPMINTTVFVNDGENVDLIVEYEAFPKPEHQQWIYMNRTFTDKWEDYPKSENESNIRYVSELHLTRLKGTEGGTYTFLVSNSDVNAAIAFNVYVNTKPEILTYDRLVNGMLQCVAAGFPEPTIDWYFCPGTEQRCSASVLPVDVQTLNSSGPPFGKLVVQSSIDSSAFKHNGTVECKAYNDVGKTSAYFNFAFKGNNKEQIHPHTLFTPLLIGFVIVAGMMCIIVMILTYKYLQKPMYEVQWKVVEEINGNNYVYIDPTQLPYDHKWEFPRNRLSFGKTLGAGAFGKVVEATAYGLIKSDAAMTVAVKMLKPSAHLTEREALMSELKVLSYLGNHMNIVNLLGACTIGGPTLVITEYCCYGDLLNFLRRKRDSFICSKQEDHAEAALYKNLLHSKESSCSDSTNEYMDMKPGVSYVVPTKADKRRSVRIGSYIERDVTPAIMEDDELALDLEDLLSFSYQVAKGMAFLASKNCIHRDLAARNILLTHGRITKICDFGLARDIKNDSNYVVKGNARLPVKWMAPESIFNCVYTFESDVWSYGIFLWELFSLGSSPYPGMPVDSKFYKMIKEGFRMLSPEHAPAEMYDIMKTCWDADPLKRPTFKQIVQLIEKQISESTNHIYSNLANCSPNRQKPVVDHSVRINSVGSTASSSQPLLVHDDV
Description: Inhibitory activity against c-kit autophosphorylation (MO7e cells, h-SCF). It is filed as cell-based. The following applies: for pIC50: MO7e cells, h-SCF 50 ng/ml, read-out: c-kit IC50. In short, it runs like this: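 In this cellular autophosphorylation assay, compound-treated MO7e cells (1 hr) were challenged with human stem cell factor at 50 ng/ml for 5 min; detection relied on PY-20 capture and anti-c-kit/HRP immunodetection at 450 nm.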

T1 sequence (P16234 24-1089): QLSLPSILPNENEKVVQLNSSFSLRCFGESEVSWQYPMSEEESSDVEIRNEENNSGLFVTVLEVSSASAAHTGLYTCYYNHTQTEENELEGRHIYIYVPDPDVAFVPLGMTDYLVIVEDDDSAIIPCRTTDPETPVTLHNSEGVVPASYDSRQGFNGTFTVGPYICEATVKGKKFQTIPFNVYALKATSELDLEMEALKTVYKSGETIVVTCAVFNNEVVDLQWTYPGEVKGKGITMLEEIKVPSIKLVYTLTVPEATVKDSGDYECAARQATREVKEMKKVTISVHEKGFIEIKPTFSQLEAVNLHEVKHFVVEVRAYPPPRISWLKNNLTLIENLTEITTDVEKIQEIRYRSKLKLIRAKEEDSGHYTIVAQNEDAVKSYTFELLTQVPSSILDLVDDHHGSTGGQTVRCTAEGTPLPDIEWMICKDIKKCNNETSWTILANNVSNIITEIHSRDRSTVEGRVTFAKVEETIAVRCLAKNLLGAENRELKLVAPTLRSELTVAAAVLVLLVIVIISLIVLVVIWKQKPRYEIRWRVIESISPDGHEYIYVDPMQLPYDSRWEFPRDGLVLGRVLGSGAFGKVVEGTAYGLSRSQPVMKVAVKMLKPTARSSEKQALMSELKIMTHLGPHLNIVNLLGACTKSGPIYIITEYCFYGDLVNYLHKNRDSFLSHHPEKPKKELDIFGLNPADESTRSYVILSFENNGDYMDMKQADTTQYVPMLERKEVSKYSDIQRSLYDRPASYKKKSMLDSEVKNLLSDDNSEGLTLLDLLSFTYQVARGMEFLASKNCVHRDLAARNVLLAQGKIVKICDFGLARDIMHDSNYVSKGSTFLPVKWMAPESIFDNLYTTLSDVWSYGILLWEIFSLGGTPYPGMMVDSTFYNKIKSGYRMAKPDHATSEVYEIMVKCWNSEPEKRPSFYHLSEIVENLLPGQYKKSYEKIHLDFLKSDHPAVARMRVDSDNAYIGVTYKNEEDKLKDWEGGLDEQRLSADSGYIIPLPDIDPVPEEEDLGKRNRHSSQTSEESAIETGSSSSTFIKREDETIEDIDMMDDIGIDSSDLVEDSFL

In the case of `COc1cc2nccc(Oc3ccc(NC(=O)Oc4ccccc4OC)cc3)c2cc1OC` [Example 260, 2-Methoxyphenyl N-{4-[(6,7-dimethoxy-4-quinolyl)oxy]phenyl}carbamate], the negative-log IC50 (pIC50) is 8.22 at PDGF-Ra and 6.74 on c-kit.
With `CCCCCCOC(=O)Nc1ccc(Oc2ccnc3cc(OC)c(OC)cc23)c(C)c1C` [Example 261, Hexyl N-{4-[(6,7-Dimethoxy-4-quinolyl)oxy]-2,3-dimethylphenyl}carbamate], the values for the negative logarithm of the IC50 (pIC50) on PDGF-Ra and at c-kit were 8.40 and 7.36, respectively.
In the case of `CCCCCCOC(=O)Nc1cc(C)c(Oc2ccnc3cc(OC)c(OC)cc23)cc1C` [Example 262, Hexyl N-{4-[(6,7-dimethoxy-4-quinolyl)oxy]-2,5-dimethylphenyl}carbamate], the negative logarithm of the IC50 (pIC50) at PDGF-Ra was 8.15; on c-kit, 7.08.
As for `CCC(OC(=O)Nc1ccc(Oc2ccnc3cc(OC)c(OC)cc23)cc1)c1ccccc1` (stereo not drawn) [Example 263, 1-Phenylpropyl N-{4-[(6,7-dimethoxy-4-quinolyl)oxy]phenyl}carbamate], the results for the pIC50 on PDGF-Ra and at c-kit were 8.00 and 6.48, respectively.
For `CCC(OC(=O)Nc1cc(C)c(Oc2ccnc3cc(OC)c(OC)cc23)cc1C)c1ccccc1` (stereo not drawn) [Example 264, 1-Phenylpropyl N-{4-[(6,7-dimethoxy-4-quinolyl)oxy]-2,5-dimethylphenyl}carbamate] the same measures were 7.38 and 6.31.
For `CCC(OC(=O)Nc1ccc(Oc2ccnc3cc(OC)c(OC)cc23)c(C)c1C)c1ccccc1` (stereo not drawn) [Example 265, 1-Phenylpropyl N-{4-[(6,7-dimethoxy-4-quinolyl)oxy]-2,3-dimethylphenyl}carbamate] the same measures were 7.46 and 6.91.
Turning to `COc1cc2nccc(Oc3ccc(NC(=O)Oc4c(C)cccc4C)cc3)c2cc1OC` [Example 269, 2,6-Dimethylphenyl N-{4-[(6,7-dimethoxy-4-quinolyl)oxy]phenyl}carbamate], at PDGF-Ra, the pIC50 was 7.77. The inhibition at 1 µM on c-kit (Mo7e, figure in parentheses in −( ), at 1000 nM) turned out to be 48%.
For the compound `COc1cc2nccc(Oc3cc(C)c(NC(=O)Oc4c(C)cccc4C)cc3C)c2cc1OC` [Example 270, 2,6-Dimethylphenyl N-{4-[(6,7-dimethoxy-4-quinolyl)oxy]-2,5-dimethylphenyl}carbamate], the figures for the negative-log IC50 (pIC50) at PDGF-Ra and on c-kit were 7.19 and 6.33, respectively.
As for `COc1cc2nccc(Oc3ccc(NC(=O)Oc4c(C)cccc4C)c(C)c3C)c2cc1OC` [Example 271, 2,6-Dimethylphenyl N-(4-[(6,7-dimethoxy-4-quinolyl)oxy]-2,3-dimethylphenyl}carbamate], the negative-log IC50 (pIC50) was 7.66 on PDGF-Ra and 6.89 on c-kit.
For `CCCCc1ccc(OC(=O)Nc2cc(C)c(Oc3ccnc4cc(OC)c(OC)cc34)cc2C)cc1` [Example 272, 4-Butylphenyl N-{4-[(6,7-dimethoxy-4-quinolyl)oxy]-2,5-dimethylphenyl}carbamate] the same measures were 7.21 and 6.53.
Regarding `CCCCc1ccc(OC(=O)Nc2ccc(Oc3ccnc4cc(OC)c(OC)cc34)c(C)c2C)cc1` [Example 273, 4-Butylphenyl N-{4-[(6,7-dimethoxy-4-quinolyl)oxy]-2,3-dimethylphenyl}carbamate], the figures for the pIC50 on PDGF-Ra and on c-kit were 7.64 and 6.97, respectively.
Consider `COc1cc2nccc(Oc3cc(C)c(NC(=O)Oc4ccc(C(C)(C)C)cc4)cc3C)c2cc1OC` [Example 274, 4-(Tert-butyl)phenyl N-{4-[(6,7-dimethoxy-4-quinolyl)oxy]-2,5-dimethylphenyl}carbamate], for which the results for the negative-log IC50 (pIC50) on PDGF-Ra and at c-kit were 7.60 and 6.40, respectively.
As for `COc1cc2nccc(Oc3ccc(NC(=O)Oc4ccc(C(C)(C)C)cc4)c(C)c3C)c2cc1OC` [Example 275, 4-(Tert-butyl)phenyl N-{4-[(6,7-dimethoxy-4-quinolyl)oxy]-2,3-dimethylphenyl}carbamate], the pIC50 at PDGF-Ra is 7.80; at c-kit, 6.99.
For `CCCC(CC)OC(=O)Nc1cc(C)c(Oc2ccnc3cc(OC)c(OC)cc23)cc1C` (stereo not drawn) [Example 276, 1-Ethylbutyl N-{4-[(6,7-dimethoxy-4-quinolyl)oxy]-2,5-dimethylphenyl}carbamate] the same measures were 7.80 and 6.38.
For `CCCC(CC)OC(=O)Nc1ccc(Oc2ccnc3cc(OC)c(OC)cc23)c(C)c1C` (stereo not drawn) [Example 277, 1-Ethylbutyl N-{4-[(6,7-dimethoxy-4-quinolyl)oxy]-2,3-dimethylphenyl}carbamate], the pIC50 was 8.00 on PDGF-Ra and 7.28 on c-kit.
On to `COc1cc2nccc(Oc3cc(C)c(NC(=O)Oc4ccccc4OC)cc3C)c2cc1OC` [Example 278, 2-Methoxyphenyl N-{4-[(6,7-dimethoxy-4-quinolyl)oxy]-2,5-dimethylphenyl}carbamate], for which the negative-log IC50 (pIC50) is 7.28 at PDGF-Ra and 6.54 on c-kit.
Take `COc1cc2nccc(Oc3ccc(NC(=O)Oc4ccccc4OC)c(C)c3C)c2cc1OC` [Example 279, 2-Methoxyphenyl N-{4-[(6,7-dimethoxy-4-quinolyl)oxy]-2,3-dimethylphenyl}carbamate]: the pIC50 was above 8.00 on PDGF-Ra and above 7.52 on c-kit.
As for `COc1cc2nccc(Oc3ccc(NC(=O)Oc4c(OC)cccc4OC)cc3)c2cc1OC` [Example 280, 2,6-Dimethoxyphenyl N-{4-[(6,7-dimethoxy-4-quinolyl)oxy]phenyl}carbamate], the negative-log IC50 (pIC50) on PDGF-Ra was above 8.00; at c-kit, 6.43.
`COc1cc2nccc(Oc3cc(C)c(NC(=O)Oc4c(OC)cccc4OC)cc3C)c2cc1OC` [Example 281, 2,6-Dimethoxyphenyl N-{4-[(6,7-dimethoxy-4-quinolyl)oxy]-2,5-dimethylphenyl}carbamate]: at PDGF-Ra (G292, figure in parentheses in >100( ), at 100 nM, read-out: PDGF (E) inhibition (%) at 100 nM), the inhibition at 0.1 µM turned out to be 49%. For the same compound, the negative logarithm of the IC50 (pIC50) at PDGF-Ra was below 7.00; at c-kit, 6.57.
Take `COc1cc2nccc(Oc3ccc(NC(=O)Oc4c(OC)cccc4OC)c(C)c3C)c2cc1OC` [Example 282, 2,6-Dimethoxyphenyl N-{4-[(6,7-dimethoxy-4-quinolyl)oxy]-2,3-dimethylphenyl}carbamate]: the results for the pIC50 on PDGF-Ra and on c-kit were 7.47 and 7.32, respectively.
For the compound `COc1cc2nccc(Oc3ccc(NC(=O)OCC4CCCCC4)cc3)c2cc1OC` [Example 283, Cyclohexylmethyl N-{4-[(6,7-dimethoxy-4-quinolyl)oxy]phenyl}carbamate], the pIC50 on PDGF-Ra is above 8.00; at c-kit, 6.92.
For `COc1cc2nccc(Oc3cc(C)c(NC(=O)OCC4CCCCC4)cc3C)c2cc1OC` [Example 284, Cyclohexylmethyl N-{4-[(6,7-dimethoxy-4-quinolyl)oxy]-2,5-dimethylphenyl}carbamate], the negative-log IC50 (pIC50) at PDGF-Ra was above 8.00; at c-kit, 6.57.
As to `COc1cc2nccc(Oc3ccc(NC(=O)OCC4CCCCC4)c(C)c3C)c2cc1OC` [Example 285, Cyclohexylmethyl N-{4-[(6,7-dimethoxy-4-quinolyl)oxy]-2,3-dimethylphenyl}carbamate], the negative-log IC50 (pIC50) on PDGF-Ra was above 8.00; at c-kit, 7.07.
On to `COc1cc2nccc(Oc3ccc(NC(=O)OC4CCCCCC4)cc3)c2cc1OC` [Example 286, Cycloheptyl N-{4-[(6,7-dimethoxy-4-quinolyl)oxy]phenyl}carbamate], for which the pIC50 at PDGF-Ra is above 8.00; on c-kit it was 7.27.
For `COc1cc2nccc(Oc3ccc(NC(=O)OC4CCCCCC4)c(C)c3C)c2cc1OC` [Example 288, Cycloheptyl N-{4-[(6,7-dimethoxy-4-quinolyl)oxy]-2,3-dimethylphenyl}carbamate] the same measures were above 8.00 and 6.79.
For `COc1cc2nccc(Oc3cc(C)c(NC(=O)Oc4ccccc4C)cc3C)c2cc1OC` [Example 289, 2-Methylphenyl N-{4-[(6,7-dimethoxy-4-quinolyl)oxy]-2,5-dimethylphenyl}carbamate] the same measures were above 8.00 and 6.48.
Regarding `COc1cccc(OC(=O)Nc2cc(C)c(Oc3ccnc4cc(OC)c(OC)cc34)cc2C)c1` [Example 290, 3-Methoxyphenyl N-{4-[(6,7-dimethoxy-4-quinolyl)oxy]-2,5-dimethylphenyl}carbamate], the pIC50 on PDGF-Ra was 7.33; on c-kit, 6.55.
In the case of `COc1cccc(OC(=O)Nc2ccc(Oc3ccnc4cc(OC)c(OC)cc34)c(C)c2C)c1` [Example 291, 3-Methoxyphenyl N-{4-[(6,7-dimethoxy-4-quinolyl)oxy]-2,3-dimethylphenyl}carbamate], the negative logarithm of the IC50 (pIC50) was 7.59 on PDGF-Ra and 6.91 at c-kit.
`COc1cc2nccc(Oc3cc(C)c(NC(=O)OC4CCc5ccccc5C4)cc3C)c2cc1OC` (stereo not drawn) [Example 292, 1,2,3,4-Tetrahydro-2-naphthalenyl N-{4-[(6,7-dimethoxy-4-quinolyl)oxy]-2,5-dimethylphenyl}carbamate]: the negative logarithm of the IC50 (pIC50) on PDGF-Ra is 7.85; on c-kit, 6.58.
As to `COc1cc2nccc(Oc3ccc(NC(=O)OC4CCc5ccccc5C4)c(C)c3C)c2cc1OC` (stereo not drawn) [Example 293, 1,2,3,4-Tetrahydro-2-naphthalenyl N-{4-[(6,7-dimethoxy-4-quinolyl)oxy]-2,3-dimethylphenyl}carbamate], the pIC50 at PDGF-Ra is above 8.00; on c-kit, 6.84.
Turning to `COc1cc2nccc(Oc3ccc(NC(=O)Oc4ccc(-c5ccccc5)cc4)cc3)c2cc1OC` [Example 294, 4-Phenylphenyl N-{4-[(6,7-dimethoxy-4-quinolyl)oxy]phenyl}carbamate], the pIC50 at PDGF-Ra is 7.82; at c-kit it was 6.96.
